ChEMBL document CHEMBL1151610, “Use of potato disc and brine shrimp bioassays to detect activity and isolate piceatannol as the antileukemic principle from the seeds of Euphorbia lagascae” (J Nat Prod, 1984)
Converted amounts (≈) assume the structure as drawn. The source made the active and inactive calls. The calls are words filed in the database; no cut-off is given here.

How the values were obtained:
[1] = Cytotoxicity against mouse 9PS cells; type: functional; conditions: read-out: LC50 (the source's name)
Mus musculus = experiment: Antitumor activity against mouse 3PS cells xenografted mouse assessed as increase in life span; type: functional, cell-based
[2] = Toxicity against brine shrimp; type: organism-based; conditions: artemia, in vivo
[3] = system: Agrobacterium tumefaciens; experiment: Antitumor activity against Agrobacterium tumefaciens-induced tumor formation at 10 ug/disk by potato disk assay; type: functional
[4] = Antitumor activity against mouse 3PS cells xenografted mouse assessed as increase in life span at 50 mg/kg; type: functional
[5] = Antitumor activity against mouse 3PS cells xenografted mouse assessed as increase in life span at 6.25 mg/kg; type: functional
[6] = Antitumor activity against mouse 3PS cells xenografted mouse assessed as increase in life span at 12.5 mg/kg; type: functional
[7] = Antitumor activity against mouse 3PS cells xenografted mouse assessed as increase in life span at 25 mg/kg; type: functional
[8] = Antitumor activity against mouse 3PS cells xenografted mouse assessed as increase in life span at 3.62 mg/kg; type: functional

| SMILES | CC50 [1] [µg/mL] | Activity (Mus musculus) | LC50 [2] [µg/mL] | Activity [3] [%] | Activity [4] [%] | Activity [5] [%] | Activity [6] [%] | Activity [7] [%] | Activity [8] [%] |
| --- | --- | --- | --- | --- | --- | --- | --- | --- | --- |
| O=c1ccc2cc(O)c(O)cc2o1 [ESCULETIN] | 3.9 (≈ 21.9 µM) | inactive | > 1000 | -13 | – | – | – | – | – |
| Oc1cc(O)cc(/C=C/c2ccc(O)c(O)c2)c1 [PICEATANNOL] | 2.5 (≈ 10.2 µM) | – | 278 (≈ 1140 µM) | -20 | 131 | 114 | 118 | 123 | 109 |
